target: T1, Alpha-1-antitrypsin [E366K] (Homo sapiens, UniProt P01009, E366K); test: Biochemical Assay (Z-AAT Elastase Activity Assay)
T1 construct: gene SERPINA1
Description: Assay Protocol: Pre-Incubation of Z-AAT with Compounds1. 7.5 μL of Z-AAT (20 nM) was incubated with compounds 1-227 in a GCA plate for 1 hour at room temperature. Addition of hNE1. 7.5 ul of HNE solution (3 nM in PBS+0.01% BRIJ35) added into GCA plate2. Incubate plate for 30 minutes to allow Z-AAT/HNE suicide complex formation. Addition of Substrate and Read Plate on PE Envision1. 7.5 μL of substrate (300 μM solution of elastase substrate (ES V) in PBS+0.01% BRIJ35) dispensed per well into GCA plate2. Immediately read on Envision.

T1 sequence (P01009 25-418 E366K limits assumed): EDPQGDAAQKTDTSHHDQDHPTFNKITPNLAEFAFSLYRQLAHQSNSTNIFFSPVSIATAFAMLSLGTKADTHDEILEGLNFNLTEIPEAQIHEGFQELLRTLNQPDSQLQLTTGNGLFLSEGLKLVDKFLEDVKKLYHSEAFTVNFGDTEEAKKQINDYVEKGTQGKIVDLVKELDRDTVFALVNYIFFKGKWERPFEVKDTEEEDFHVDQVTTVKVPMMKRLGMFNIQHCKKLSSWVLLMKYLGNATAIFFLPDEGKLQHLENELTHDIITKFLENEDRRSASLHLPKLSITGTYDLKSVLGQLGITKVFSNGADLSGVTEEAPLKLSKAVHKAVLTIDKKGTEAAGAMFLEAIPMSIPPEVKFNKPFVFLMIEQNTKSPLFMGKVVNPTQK

Row | SMILES | IC50
1 | Cc1cc(-n2c(C(C)C)c(-c3ccc(C(=O)O)cc3C)c3cc(O)ccc32)ccc1F [US20230339915, Compound 170] | < 2 µM
2 | Cc1cc(-n2c(C(C)C)c(C3CC3(C)C(=O)O)c3cc(O)ccc32)ccc1F (centres undefined) [US20230339915, Compound 130] | > 5 µM
3 | Cc1cc(-n2c(C(C)C)c(-c3ccc(C(=O)O)cc3)c3cc(O)ccc32)ccc1F [US20230339915, Compound 167] | < 2 µM
4 | Cc1cc(-n2c(C(C)C)c([C@H]3C[C@@H]3C(=O)O)c3cc(O)c(F)cc32)ccc1F [US20230339915, Compound 129] | > 5 µM

From BindingDB's records for patent US20230339915 (Vertex Pharmaceuticals, 2023)
